Experimental data: US20060069132A1, “Azolecarboxamide herbicides” (priority 2004, published 2006)

Assays:
[1] = tested on: large crabgrass; experiment: Test B pre-/postemergence herbicide test; assay type: in vivo, Digitaria sanguinalis; conditions: for Crabgrass, Large plant response rating: postemergence, visual rating, scale 0 (no effect) to 100 (complete control)
In short: (§1)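 Evaluation is visual, comparing treated with control plants on a scale where 0 means no effect and 100 means full control. Treatments were preemergence, or postemergence on seedlings 2–18 cm tall, and held 13–15 days in the greenhouse.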

[2] = tested on: corn; experiment: Test B pre-/postemergence herbicide test; assay type: in vivo, Zea mays; conditions: for Corn plant response rating: postemergence, visual rating, scale 0 (no effect) to 100 (complete control)
In short: as §1

[3] = tested on: rice; experiment: Test B flooded paddy test; assay type: in vivo, Oryza sativa; conditions: 1000 g ai/ha, visual rating, scale 0 to 100 (0 no effect, 100 complete control), 13 to 15 days
In short: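 Each value is a visual 0–100 response rating taken against controls 13 to 15 days after treatment in the greenhouse. Plants received formulated chemical postemergence at the 1- to 4-leaf stage or, in flooded paddy, at the 2-leaf stage.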

[4] = tested on: small flower umbrella sedge; experiment: Test B flooded paddy test; assay type: in vivo, Cyperus difformis; conditions: 1000 g ai/ha, visual rating, scale 0 to 100 (0 no effect, 100 complete control), 13 to 15 days
In short: (§2)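 Postemergence plants were sprayed with formulated test chemicals at 2 to 18 cm height (1- to 4-leaf stage); paddy species were grown to the 2-leaf stage. After 13 to 15 days in a greenhouse, injury was rated visually against untreated controls on a 0–100 scale (0 = no effect, 100 = complete control).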

[5] = tested on: blackgrass; experiment: Test B postemergence herbicide test; assay type: in vivo, Alopecurus myosuroides; conditions: postemergence, visual rating, scale 0 (no effect) to 100 (complete control)
In short: as §2

[6] = tested on: giant foxtail; experiment: Test A pre-/postemergence herbicide test; assay type: in vivo, Setaria faberi
In short: (§3)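 Greenhouse injury scoring (0–100, complete control = 100) at approximately ten days follows simultaneous pre- and postemergence application. Soil received a directed spray after seeding; seedlings of 2–10 cm at the one- to two-leaf stage were sprayed to runoff.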

[7] = tested on: morningglory; experiment: Test A pre-/postemergence herbicide test; assay type: in vivo, Ipomoea spp.
In short: as §3

[8] = tested on: barnyardgrass; experiment: Test B flooded paddy test; assay type: in vivo, Echinochloa crus-galli; conditions: 1000 g ai/ha, visual rating, scale 0 to 100 (0 no effect, 100 complete control), 13 to 15 days
In short: as §2

[9] = tested on: large crabgrass; experiment: Test A pre-/postemergence herbicide test; assay type: in vivo, Digitaria sanguinalis
In short: as §3

[10] = tested on: ducksalad; experiment: Test B flooded paddy test; assay type: in vivo, Heteranthera limosa; conditions: 1000 g ai/ha, visual rating, scale 0 to 100 (0 no effect, 100 complete control), 13 to 15 days
In short: as §2

[11] = tested on: redroot pigweed; experiment: Test A pre-/postemergence herbicide test; assay type: in vivo, Amaranthus retroflexus
In short: as §3

[12] = tested on: pigweed; experiment: Test B pre-/postemergence herbicide test; assay type: in vivo, Amaranthus retroflexus; conditions: for Pigweed plant response rating: postemergence, visual rating, scale 0 (no effect) to 100 (complete control)
In short: as §1

[13] = tested on: velvetleaf; experiment: Test A pre-/postemergence herbicide test; assay type: in vivo, Abutilon theophrasti
In short: as §3

[14] = tested on: velvetleaf; experiment: Test B pre-/postemergence herbicide test; assay type: in vivo, Abutilon theophrasti; conditions: for Velvetleaf plant response rating: postemergence, visual rating, scale 0 (no effect) to 100 (complete control)
In short: as §1

[15] = tested on: cocklebur; experiment: Test B pre-/postemergence herbicide test; assay type: in vivo, Xanthium strumarium; conditions: for Cocklebur plant response rating: postemergence, visual rating, scale 0 (no effect) to 100 (complete control)
In short: (§4)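 Seeds were planted and treated preemergence with compounds formulated in a non-phytotoxic solvent mixture containing surfactant, while plants at the 1- to 4-leaf stage (2 to 18 cm) received postemergence sprays. Flooded paddy plants were grown to the 2-leaf stage. After 13 to 15 days in a greenhouse, injury was visually rated 0–100 against untreated controls.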

[16] = tested on: rice; experiment: Test B pre-/postemergence herbicide test; assay type: in vivo, Oryza sativa; conditions: preemergence
In short: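 Plants compared with untreated controls 13–15 days post-treatment and given a visual 0–100 injury score. Applications: preemergence to seeds; postemergence at 1- to 4-leaf (2–18 cm); paddy species flooded, 2-leaf stage. Vehicle non-phytotoxic, surfactant included.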

[17] = tested on: wild oat; experiment: Test B postemergence herbicide test; assay type: in vivo, Avena fatua; conditions: postemergence, visual rating, scale 0 (no effect) to 100 (complete control)
In short: (§5)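 Scale 0–100: zero equals no visible effect, 100 complete control, judged by eye relative to controls. Timing: 13 to 15 days in greenhouse post-treatment. Growth stage at spraying: two leaves (paddy) or one to four leaves, 2–18 cm (postemergence).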

[18] = tested on: Surinam grass; experiment: Test B pre-/postemergence herbicide test; assay type: in vivo, Urochloa decumbens; conditions: for Surinam Grass plant response rating: postemergence, visual rating, scale 0 (no effect) to 100 (complete control)
In short: as §1

[19] = tested on: barnyardgrass; experiment: Test A pre-/postemergence herbicide test; assay type: in vivo, Echinochloa crus-galli
In short: as §3

[20] = tested on: lambsquarters; experiment: Test B pre-/postemergence herbicide test; assay type: in vivo, Chenopodium album; conditions: for Lambsquarters plant response rating: postemergence, visual rating, scale 0 (no effect) to 100 (complete control)
In short: as §1

[21] = tested on: barnyardgrass; experiment: Test B pre-/postemergence herbicide test; assay type: in vivo, Echinochloa crus-galli; conditions: for Barnyardgrass plant response rating: postemergence, visual rating, scale 0 (no effect) to 100 (complete control)
In short: as §4

[22] = tested on: wheat; experiment: Test B postemergence herbicide test; assay type: in vivo, Triticum aestivum; design: key to Wheat plant response rating: 0 = no effect, 100 = complete control; conditions: postemergence, visual rating, scale 0 (no effect) to 100 (complete control)
In short: as §5

[23] = tested on: morningglory; experiment: Test B pre-/postemergence herbicide test; assay type: in vivo, Ipomoea coccinea; conditions: for Morningglory plant response rating: postemergence, visual rating, scale 0 (no effect) to 100 (complete control)
In short: as §4

[24] = tested on: giant foxtail; experiment: Test B pre-/postemergence herbicide test; assay type: in vivo, Setaria faberi; conditions: for Foxtail, Giant plant response rating: postemergence, visual rating, scale 0 (no effect) to 100 (complete control)
In short: as §1

[25] = 125 g ai/ha, 0 = no effect, 100 = complete control, preemergence
[26] = 500 g ai/ha, visual rating 0-100, 0 no effect, 100 complete control, preemergence
[27] = Postemergence, 500 g ai/ha, 0 to 100 scale, 0 no effect, 100 complete control
[28] = Postemergence, 2000 g ai/ha, 0 to 100 scale, 0 no effect, 100 complete control
[29] = Preemergence, 2000 g ai/ha, visual rating, 0 to 100 scale (0 no effect, 100 complete control)
[30] = preemergence, 500 g ai/ha, visual injury, 0 to 100 scale (0 no effect, 100 complete control)

CCc1nc(C(C)(C)C)sc1C(=O)Nc1cccc(C(=O)NCC(C)C)c1 [Compound 211]
Crabgrass, Large plant response rating (0 to 100 scale) [1, 25]: 10 | Plant response rating, Crabgrass, Large [1, 26]: 70 | Crabgrass, Large plant response rating ([1]; 125 g ai/ha): 10 | Crabgrass, Large plant response rating ([1]; 500 g ai/ha): 10 | Corn plant response rating (0 to 100 scale) [2, 25]: 0 | Plant response rating, Corn [2, 26]: 10 | Corn plant response rating ([2]; 125 g ai/ha): 10 | Corn plant response rating ([2]; 500 g ai/ha): 10 | Rice plant response rating [3]: 20 | Sedge, Umbrella plant response rating [4]: 30 | Blackgrass plant response rating ([5]; 125 g ai/ha): 10 | Blackgrass plant response rating ([5]; 500 g ai/ha): 10 | Foxtail, Giant plant response rating [6, 27]: 20 | Plant response rating, Foxtail, Giant [6, 28]: 30 | Foxtail, Giant plant response rating [6, 29]: 70 | Foxtail, Giant plant response rating [6, 30]: 45 | Morningglory plant response rating [7, 27]: 20 | Plant response rating, Morningglory [7, 28]: 15 | Morningglory plant response rating [7, 29]: 25 | Morningglory plant response rating [7, 30]: 10 | Barnyardgrass plant response rating [8]: 20 | Crabgrass, Large plant response rating [9, 27]: 20 | Plant response rating, Crabgrass, Large [9, 28]: 30 | Crabgrass, Large plant response rating [9, 29]: 85 | Crabgrass, Large plant response rating [9, 30]: 75 | Ducksalad plant response rating [10]: 80 | Pigweed plant response rating [11, 27]: 25 | Plant response rating, Pigweed [11, 28]: 25 | Pigweed plant response rating [11, 29]: 40 | Pigweed plant response rating [11, 30]: 30 | Pigweed plant response rating (0 to 100 scale) [12, 25]: 0 | Plant response rating, Pigweed [12, 26]: 30 | Pigweed plant response rating ([12]; 125 g ai/ha): 10 | Pigweed plant response rating ([12]; 500 g ai/ha): 30 | Velvetleaf plant response rating [13, 27]: 15 | Plant response rating, Velvetleaf [13, 28]: 25 | Velvetleaf plant response rating [13, 29]: 65 | Velvetleaf plant response rating [13, 30]: 25 | Velvetleaf plant response rating (0 to 100 scale) [14, 25]: 0 | Plant response rating, Velvetleaf [14, 26]: 10 | Velvetleaf plant response rating ([14]; 125 g ai/ha): 30 | Velvetleaf plant response rating ([14]; 500 g ai/ha): 30 | Cocklebur plant response rating (0 to 100 scale) [15, 25]: 0 | Plant response rating, Cocklebur [15, 26]: 0 | Cocklebur plant response rating ([15]; 125 g ai/ha): 30 | Cocklebur plant response rating ([15]; 500 g ai/ha): 60 | Rice plant response rating (0 to 100 scale) ([16]; 125 g ai/ha, 0 = no effect, 100 = complete control): 0 | Plant response rating, Rice ([16]; 500 g ai/ha, visual rating 0-100, 0 no effect, 100 complete control): 10 | Oat, Wild plant response rating ([17]; 125 g ai/ha): 10 | Oat, Wild plant response rating ([17]; 500 g ai/ha): 10 | Surinam Grass plant response rating (0 to 100 scale) [18, 25]: 0 | Plant response rating, Surinam Grass [18, 26]: 30 | Surinam Grass plant response rating ([18]; 125 g ai/ha): 10 | Surinam Grass plant response rating ([18]; 500 g ai/ha): 10 | Barnyardgrass plant response rating [19, 27]: 25 | Plant response rating, Barnyardgrass [19, 28]: 55 | Barnyardgrass plant response rating [19, 29]: 70 | Barnyardgrass plant response rating [19, 30]: 55 | Lambsquarters plant response rating (0 to 100 scale) [20, 25]: 10 | Plant response rating, Lambsquarters [20, 26]: 80 | Lambsquarters plant response rating ([20]; 125 g ai/ha): 60 | Lambsquarters plant response rating ([20]; 500 g ai/ha): 70 | Barnyardgrass plant response rating (0 to 100 scale) [21, 25]: 10 | Plant response rating, Barnyardgrass [21, 26]: 50 | Barnyardgrass plant response rating ([21]; 125 g ai/ha): 10 | Barnyardgrass plant response rating ([21]; 500 g ai/ha): 10 | Wheat plant response rating ([22]; 125 g ai/ha): 10 | Wheat plant response rating ([22]; 500 g ai/ha): 10 | Morningglory plant response rating (0 to 100 scale) [23, 25]: 0 | Plant response rating, Morningglory [23, 26]: 10 | Morningglory plant response rating ([23]; 125 g ai/ha): 10 | Morningglory plant response rating ([23]; 500 g ai/ha): 30 | Foxtail, Giant plant response rating (0 to 100 scale) [24, 25]: 10 | Plant response rating, Foxtail, Giant [24, 26]: 50 | Foxtail, Giant plant response rating ([24]; 125 g ai/ha): 10 | Foxtail, Giant plant response rating ([24]; 500 g ai/ha): 10
